We go through three compounds from article PMC4354951 (European journal of medicinal chemistry, 2008).

The target in one series is T1, human NTPDase2 (Homo sapiens, UniProt Q9Y5L3).
T1 sequence (Q9Y5L3 1-495): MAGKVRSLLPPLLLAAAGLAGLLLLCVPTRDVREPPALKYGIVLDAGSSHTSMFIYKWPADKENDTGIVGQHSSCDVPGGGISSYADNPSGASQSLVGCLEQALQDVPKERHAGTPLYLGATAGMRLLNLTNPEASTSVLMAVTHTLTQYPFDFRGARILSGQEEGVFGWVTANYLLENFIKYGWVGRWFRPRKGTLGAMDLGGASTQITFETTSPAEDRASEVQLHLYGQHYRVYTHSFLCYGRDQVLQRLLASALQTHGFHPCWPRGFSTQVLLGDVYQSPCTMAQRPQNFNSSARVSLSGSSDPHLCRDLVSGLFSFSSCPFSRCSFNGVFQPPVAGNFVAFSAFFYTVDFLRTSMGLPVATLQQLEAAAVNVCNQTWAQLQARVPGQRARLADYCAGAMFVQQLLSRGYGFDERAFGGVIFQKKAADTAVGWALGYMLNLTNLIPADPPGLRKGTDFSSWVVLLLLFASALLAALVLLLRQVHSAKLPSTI
Briefly: Hydrolysis by NTPDase2. The conditions noted are these: 100 μM substrate; relative to ATP hydrolysis (100%). In kind it is biochemical.

The target of a further series is T2, human NTPDase3 (Homo sapiens, UniProt O75355).
T2 sequence (O75355 1-529): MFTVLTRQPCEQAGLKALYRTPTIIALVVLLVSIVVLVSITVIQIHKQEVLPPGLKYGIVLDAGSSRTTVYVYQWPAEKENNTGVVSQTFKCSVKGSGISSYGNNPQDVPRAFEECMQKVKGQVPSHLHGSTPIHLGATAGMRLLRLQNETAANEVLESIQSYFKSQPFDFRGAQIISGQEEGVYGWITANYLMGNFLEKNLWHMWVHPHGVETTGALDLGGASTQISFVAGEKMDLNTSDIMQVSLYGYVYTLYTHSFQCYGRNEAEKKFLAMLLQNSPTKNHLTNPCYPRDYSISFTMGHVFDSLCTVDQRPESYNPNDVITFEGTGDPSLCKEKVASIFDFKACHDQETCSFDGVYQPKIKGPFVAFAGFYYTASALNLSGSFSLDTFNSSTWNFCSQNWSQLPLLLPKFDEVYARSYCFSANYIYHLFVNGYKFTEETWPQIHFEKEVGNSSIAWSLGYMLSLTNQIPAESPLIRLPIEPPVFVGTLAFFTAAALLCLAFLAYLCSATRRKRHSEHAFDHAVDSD
Briefly: Hydrolysis by NTPDase3. In kind it is biochemical. Conditions: 100 μM substrate; relative to ATP hydrolysis (100%).

Another series deals with T3, human NTPDase8 (Homo sapiens, UniProt Q5MY95).
T3 sequence (Q5MY95 1-495): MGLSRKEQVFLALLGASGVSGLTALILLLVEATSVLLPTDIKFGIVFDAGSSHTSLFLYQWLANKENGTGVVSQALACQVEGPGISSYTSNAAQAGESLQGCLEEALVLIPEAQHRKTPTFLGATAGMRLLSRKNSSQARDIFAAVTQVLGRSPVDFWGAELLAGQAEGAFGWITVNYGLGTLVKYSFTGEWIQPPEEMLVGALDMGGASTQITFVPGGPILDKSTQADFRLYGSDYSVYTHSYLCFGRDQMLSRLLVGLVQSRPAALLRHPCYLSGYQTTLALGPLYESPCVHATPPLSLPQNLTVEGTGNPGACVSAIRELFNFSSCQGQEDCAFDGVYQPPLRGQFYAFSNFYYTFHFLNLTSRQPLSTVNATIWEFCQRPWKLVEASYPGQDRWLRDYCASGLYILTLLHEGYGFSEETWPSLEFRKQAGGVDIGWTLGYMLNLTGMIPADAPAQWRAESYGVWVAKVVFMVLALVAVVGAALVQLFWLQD
Briefly: Hydrolysis by NTPDase8. In kind it is biochemical. The conditions noted are these: 100 μM substrate; relative to ATP hydrolysis (100%).

The target of another series is T4, human NPP1 (Homo sapiens, UniProt P22413).
T4 sequence (P22413 1-925): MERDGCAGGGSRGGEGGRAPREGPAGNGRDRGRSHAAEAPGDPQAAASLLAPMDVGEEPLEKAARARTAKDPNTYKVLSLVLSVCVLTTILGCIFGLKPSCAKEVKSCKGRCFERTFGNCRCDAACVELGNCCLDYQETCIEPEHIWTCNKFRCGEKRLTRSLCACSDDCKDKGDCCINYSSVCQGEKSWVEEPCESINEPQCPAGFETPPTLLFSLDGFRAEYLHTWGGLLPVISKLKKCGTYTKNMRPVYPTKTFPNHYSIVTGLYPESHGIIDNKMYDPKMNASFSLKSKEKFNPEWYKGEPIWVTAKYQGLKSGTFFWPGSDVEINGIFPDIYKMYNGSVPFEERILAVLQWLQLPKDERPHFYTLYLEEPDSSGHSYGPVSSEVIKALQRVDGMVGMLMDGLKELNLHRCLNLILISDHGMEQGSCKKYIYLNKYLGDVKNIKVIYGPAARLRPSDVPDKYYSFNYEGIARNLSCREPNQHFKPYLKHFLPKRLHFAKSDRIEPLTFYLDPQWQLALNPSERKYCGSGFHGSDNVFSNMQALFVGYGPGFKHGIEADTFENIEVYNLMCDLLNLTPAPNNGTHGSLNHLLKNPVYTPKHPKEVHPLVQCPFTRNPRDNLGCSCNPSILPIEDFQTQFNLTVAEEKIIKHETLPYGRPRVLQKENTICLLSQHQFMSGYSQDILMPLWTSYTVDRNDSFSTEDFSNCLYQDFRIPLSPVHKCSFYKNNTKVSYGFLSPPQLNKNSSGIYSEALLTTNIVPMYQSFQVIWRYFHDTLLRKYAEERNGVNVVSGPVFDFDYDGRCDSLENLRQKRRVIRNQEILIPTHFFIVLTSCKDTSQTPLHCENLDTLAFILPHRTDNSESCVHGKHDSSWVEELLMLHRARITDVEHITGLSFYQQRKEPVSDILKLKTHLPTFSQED
Briefly: Hydrolysis by NPP1. The format is biochemical. The conditions noted are these: 100 μM substrate; relative to pnp-TMP hydrolysis (100%).

The target in a further series is turkey P2Y1 receptor (Meleagris gallopavo, UniProt P49652). In kind it is cell-based. Conditions: 1321N1 cell transfectants; for EC50: read-out: EC50 of analogue-induced increase in [Ca2+]i, P2Y1.
The target in another series is human P2Y4 receptor (Homo sapiens, UniProt P51582). Briefly: Increase in [Ca2+]i in 1321N1 astrocytoma cells expressing P2Y4 receptor. The format is cell-based. The conditions noted are these: 1321N1 cell transfectants; for EC50: read-out: EC50 of analogue-induced increase in [Ca2+]i, P2Y4.
Another series concerns the target rat P2Y6 receptor (Rattus norvegicus, UniProt Q63371). Briefly: Increase in [Ca2+]i in 1321N1 astrocytoma cells expressing P2Y6 receptor. Conditions: 1321N1 cell transfectants; for EC50: read-out: EC50 of analogue-induced increase in [Ca2+]i, P2Y6. In kind it is cell-based.

For orientation: EC50 means the midpoint of the concentration-response curve.

“Also recorded” adds a separate entry of the source.

Sequence of rat P2Y6 receptor (Q63371 whole entry): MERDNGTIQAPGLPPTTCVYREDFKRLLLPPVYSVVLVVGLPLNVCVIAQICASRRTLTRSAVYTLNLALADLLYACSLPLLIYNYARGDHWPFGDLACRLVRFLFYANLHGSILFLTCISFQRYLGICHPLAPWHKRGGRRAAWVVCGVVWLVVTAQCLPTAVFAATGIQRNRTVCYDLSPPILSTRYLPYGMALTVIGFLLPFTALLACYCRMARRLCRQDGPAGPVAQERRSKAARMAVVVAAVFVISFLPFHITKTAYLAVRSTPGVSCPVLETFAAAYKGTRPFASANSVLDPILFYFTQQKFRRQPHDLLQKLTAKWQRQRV
Sequence of human P2Y4 receptor (P51582 whole entry): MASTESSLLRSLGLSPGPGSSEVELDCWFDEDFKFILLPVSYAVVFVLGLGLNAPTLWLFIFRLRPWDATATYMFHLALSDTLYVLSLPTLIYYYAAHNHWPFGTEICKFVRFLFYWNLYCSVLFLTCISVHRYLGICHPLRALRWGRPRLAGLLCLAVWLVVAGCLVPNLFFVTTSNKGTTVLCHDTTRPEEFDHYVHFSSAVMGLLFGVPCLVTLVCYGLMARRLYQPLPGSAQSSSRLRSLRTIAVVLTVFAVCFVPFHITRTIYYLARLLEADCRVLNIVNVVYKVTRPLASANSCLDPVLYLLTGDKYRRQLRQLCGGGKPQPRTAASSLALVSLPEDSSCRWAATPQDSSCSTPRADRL
Sequence of turkey P2Y1 receptor (P49652 whole entry): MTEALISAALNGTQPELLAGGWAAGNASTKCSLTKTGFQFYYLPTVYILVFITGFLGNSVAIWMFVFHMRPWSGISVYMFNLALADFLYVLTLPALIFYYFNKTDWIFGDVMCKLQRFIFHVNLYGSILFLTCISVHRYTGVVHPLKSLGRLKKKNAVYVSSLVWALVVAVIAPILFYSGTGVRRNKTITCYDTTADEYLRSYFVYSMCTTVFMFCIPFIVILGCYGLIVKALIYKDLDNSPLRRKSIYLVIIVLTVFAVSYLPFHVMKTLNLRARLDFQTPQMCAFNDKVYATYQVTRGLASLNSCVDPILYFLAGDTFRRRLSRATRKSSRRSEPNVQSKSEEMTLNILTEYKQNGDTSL

In the case of `[BH3-][P+](O)(OC[C@H]1O[C@@H](n2cnc3c(N)ncnc32)[C@H](O)[C@@H]1O)OP(=O)(O)CP(=O)(O)O` (single isomer, unassigned) [3B, Adenosine-5′-O-(α-boranotriphosphate)-β,γ-CH2], the “Relative activity of NTPDase2” value on human NTPDase2 was 0%. In addition, at human NTPDase3, the “Relative activity of NTPDase3” value was determined as 6.0 ± 0.16%. Besides, the “Relative activity of NTPDase8” value at human NTPDase8 is given as <1%. Further, at human NPP1, the “Relative activity of NPP1” value is 4.0 ± 0.12%. In addition, on turkey P2Y1 receptor, the “agonist activity at P2Y1R” value is “insignificant activities” and the EC50 is > 100 µM. Further, at human P2Y4 receptor, the “agonist activity at P2Y4R” value is “insignificant activities” and the EC50 is > 100 µM. Also, at rat P2Y6 receptor, the “agonist activity at P2Y6R” value is reported as “insignificant activities” and the EC50 is > 100 µM.
`[BH3-][P+](O)(OC[C@H]1O[C@@H](n2cnc3c(N)nc(SC)nc32)[C@H](O)[C@@H]1O)OP(=O)(O)CP(=O)(O)O` (single isomer, unassigned) [4A, 2-MeS–adenosine-5′-O-(α-boranotriphosphate)-β,γ-CH2]: on human NTPDase2, the “Relative activity of NTPDase2” value worked out at 1.0 ± 0.1%. In addition, the “Relative activity of NTPDase3” value at human NTPDase3 is on record as 2.0 ± 0.26%. On human NTPDase8, the “Relative activity of NTPDase8” value was determined as 4.0 ± 0.02%. Moreover, at human NPP1, the “Relative activity of NPP1” value is 0%. Besides, on turkey P2Y1 receptor, the “agonist activity at P2Y1R” value was “insignificant activities; also recorded: practically inactive; also recorded: no activity” and the EC50 is > 100 µM. Further, at human P2Y4 receptor, the “agonist activity at P2Y4R” value is “insignificant activities” and the EC50 was > 100 µM. Moreover, on rat P2Y6 receptor, the “agonist activity at P2Y6R” value is recorded as “insignificant activities” and the EC50 was > 100 µM.
Take `[BH3-][P+](O)(OC[C@H]1O[C@@H](n2cnc3c(N)ncnc32)[C@H](O)[C@@H]1O)OP(=O)(O)CP(=O)(O)O` (single isomer, unassigned) [3A, Adenosine-5′-O-(α-boranotriphosphate)-β,γ-CH2]: the “Relative activity of NTPDase2” value on human NTPDase2 worked out at 1.0 ± 0.2%. Also, the “Relative activity of NTPDase3” value on human NTPDase3 is given as 0%. Further, the “Relative activity of NTPDase8” value on human NTPDase8 was 2.0 ± 0.03%. Further, on human NPP1, the “Relative activity of NPP1” value amounted to 0%. For the same compound, at turkey P2Y1 receptor, the “agonist activity at P2Y1R” value was “insignificant activities; also recorded: practically inactive” and the EC50 is > 100 µM. Further, at human P2Y4 receptor, the “agonist activity at P2Y4R” value is recorded as “insignificant activities” and the EC50 is > 100 µM. At rat P2Y6 receptor, the “agonist activity at P2Y6R” value is reported as “insignificant activities” and the EC50 is > 100 µM.
